Measurements from ChEMBL document CHEMBL4680234, “Antibacterial AZT derivative regulates metastasis of breast cancer cells” (Eur J Med Chem, 2020).
In brackets after ≈: the same amount, converted by molar mass. Activity calls are given as the source filed them. The calls are words filed in the database; no cut-off is given here.

What was measured:
[1] = system: Staphylococcus aureus; test: Antibacterial activity against Staphylococcus aureus KCTC 1621 assessed as reduction in bacterial growth incubated for 18 to 22 hrs by spectrophotometry based broth microdilution method; format: functional; details: time 18-22 hrs, read-out: MIC100
[2] = system: Pseudomonas aeruginosa; test: Antibacterial activity against Pseudomonas aeruginosa KCTC 1637 assessed as reduction in bacterial growth incubated for 18 to 22 hrs by spectrophotometry based broth microdilution method; format: functional; details: time 18-22 hrs, read-out: MIC100
[3] = system: Bacillus subtilis; test: Antibacterial activity against Bacillus subtilis KCTC 3068 assessed as reduction in bacterial growth incubated for 18 to 22 hrs by spectrophotometry based broth microdilution method; format: functional; details: time 18-22 hrs, read-out: MIC100
[4] = system: Escherichia coli; test: Antibacterial activity against Escherichia coli KCTC 1682 assessed as reduction in bacterial growth incubated for 18 to 22 hrs by spectrophotometry based broth microdilution method; format: functional; details: time 18-22 hrs, read-out: MIC100
[5] = system: Bacillus subtilis; test: Potency index, ratio of melittin MIC to test compound MIC for antibacterial activity against Bacillus subtilis KCTC 3068; format: functional
[6] = system: Staphylococcus aureus; test: Antimicrobial activity against methicillin-resistant Staphylococcus aureus CCARM 3090 assessed as reduction in microbial growth incubated for 18 to 24 hrs by broth microdilution method; format: functional; details: time 18-24 hrs
[7] = system: Staphylococcus aureus; test: Antimicrobial activity against methicillin-resistant Staphylococcus aureus CCARM 3095 assessed as reduction in microbial growth incubated for 18 to 24 hrs by broth microdilution method; format: functional; details: time 18-24 hrs
[8] = system: Staphylococcus aureus; test: Antimicrobial activity against methicillin-resistant Staphylococcus aureus CCARM 3089 assessed as reduction in microbial growth incubated for 18 to 24 hrs by broth microdilution method; format: functional; details: time 18-24 hrs
[9] = system: Staphylococcus aureus; test: Potency index, ratio of melittin MIC to test compound MIC for antimicrobial activity against methicillin-resistant Staphylococcus aureus CCARM 3089; format: functional
[10] = system: Pseudomonas aeruginosa; test: Potency index, ratio of melittin MIC to test compound MIC for antibacterial activity against Pseudomonas aeruginosa KCTC 1637; format: functional
[11] = system: Pseudomonas aeruginosa; test: Potency index, ratio of melittin MIC to test compound MIC for antimicrobial activity against multidrug-resistant Pseudomonas aeruginosa CCARM 2109 assessed as reduction in microbial growth
[12] = system: Erythrocyte; test: Hemolytic activity in sheep RBC at 16 ug/ml measured after 2 hrs by ELISA; format: cell-based, Ovis aries; details: dose 16 µg/ml
[13] = Therapeutic index, ratio of MHC for sheep RBC to geometric mean of peptide MIC for Pseudomonas aeruginosa KCTC 1637; format: toxicity; details: sheep red blood cells (erythrocytes), read-out: TI
[14] = Therapeutic index, ratio of MHC for sheep RBC to geometric mean of peptide MIC for Bacillus subtilis KCTC 3068; format: toxicity; details: sheep red blood cells (erythrocytes), read-out: TI
[15] = system: MDA-MB-231; test: Inhibition of cell motility in human MDA-MB-231 cells assessed as reduction in cell migration distance at 40 uM measured at 30 mins interval for 24 hrs by time-lapse […] analysis; format: functional, cell-based
[16] = system: MDA-MB-231; test: Antiinvasive activity in human MDA-MB-231 cells at 40 uM measured after 16 hrs using crystal violet staining microscopy based Boyden chamber assay; format: functional, cell-based
[17] = system: Staphylococcus aureus; test: Potency index, ratio of melittin MIC to test compound MIC for antibacterial activity against Staphylococcus aureus KCTC 1621; format: functional
[18] = system: MDA-MB-231; test: Antimigratory activity in human MDA-MB-231 cells assessed as reduction in wound closure at 40 uM measured after 18 to 36 hrs by microscopic analysis; format: functional, cell-based; details: time 18-36 hrs
[19] = system: Staphylococcus aureus; test: Potency index, ratio of melittin MIC to test compound MIC for antimicrobial activity against methicillin-resistant Staphylococcus aureus CCARM 3090; format: functional
[20] = system: Erythrocyte; test: Hemolytic activity in sheep RBC measured after 2 hrs by ELISA; format: ADME, cell-based, Ovis aries
[21] = Therapeutic index, ratio of MHC for sheep RBC to geometric mean of peptide MIC for Staphylococcus aureus KCTC 1621; format: toxicity; details: sheep red blood cells (erythrocytes), read-out: TI
[22] = Therapeutic index, ratio of MHC for sheep RBC to geometric mean of peptide MIC for Escherichia coli KCTC 1682; format: toxicity; details: sheep red blood cells (erythrocytes), read-out: TI
[23] = system: MDA-MB-231; test: Cytotoxicity against human MDA-MB-231 cells assessed as reduction in cell viability at 50 uM measured after 48 hrs by EZCytox cell viability assay; format: cell-based; details: mda-mb-231, 48 h
[24] = system: MDA-MB-231; test: Inhibition of actin polymerization in human MDA-MB-231 cells assessed as reduction in lamellipodium formation at 20 to 40 uM measured after 6 hrs by Texas Red-conjugated phalloidin staining based fluorescence microscopic analysis; format: cell-based; details: dose 20-40 µM
[25] = system: Pseudomonas aeruginosa; test: Potency index, ratio of melittin MIC to test compound MIC for antimicrobial activity against multidrug-resistant Pseudomonas aeruginosa CCARM 2095 assessed as reduction in microbial growth
[26] = system: Staphylococcus aureus; test: Potency index, ratio of melittin MIC to test compound MIC for antimicrobial activity against methicillin-resistant Staphylococcus aureus CCARM 3095; format: functional
[27] = system: Escherichia coli; test: Potency index, ratio of melittin MIC to test compound MIC for antibacterial activity against Escherichia coli KCTC 1682; format: functional

SMILES | MIC [1] | MIC [2] | MIC [3] | MIC [4] | Ratio [5] | MIC [6] | MIC [7] | MIC [8] | also measured
Cc1cn([C@H]2C[C@H](NC(=O)Cc3cccc4ccccc34)[C@@H](CNC(=O)Cc3cccc4ccccc34)O2)c(=O)nc1NCCNC(=N)N | 32 µg/mL (≈ 48.4 µM) | > 64 µg/mL | 16 µg/mL (≈ 24.2 µM) | > 64 µg/mL |  |  |  |  | 
Cc1cn([C@H]2C[C@H](NC(=O)Cc3cccc4ccccc34)[C@@H](CNC(=O)Cc3cccc4ccccc34)O2)c(=O)nc1N(CCCNC(=N)N)CCCNC(=N)N | 8 µg/mL (≈ 10.3 µM) | 16 µg/mL (≈ 20.7 µM) | 4 µg/mL (≈ 5.17 µM) | 64 µg/mL (≈ 82.7 µM) | 2 |  |  |  | 
Cc1cn([C@H]2C[C@H](NC(=O)CCCc3ccccc3)[C@@H](CNC(=O)CCCc3ccccc3)O2)c(=O)nc1N(CCCNC(=N)N)CCCNC(=N)N | 8 µg/mL (≈ 11 µM) | 16 µg/mL (≈ 21.9 µM) | 8 µg/mL (≈ 11 µM) | > 64 µg/mL |  |  |  |  | 
O=C(N[C@H](CO)[C@H](O)c1ccc([N+](=O)[O-])cc1)C(Cl)Cl [CHLORAMPHENICOL] |  |  |  |  |  | 256 µg/mL | 512 µg/mL | 512 µg/mL | 
Cc1cn([C@H]2C[C@H](NC(=O)CC34CC5CC(CC(C5)C3)C4)[C@@H](CNC(=O)CC34CC5CC(CC(C5)C3)C4)O2)c(=O)nc1N(CCCNC(=N)N)CCCNC(=N)N | 2 µg/mL (≈ 2.53 µM) | 4 µg/mL (≈ 5.06 µM) | 2 µg/mL (≈ 2.53 µM) | 16 µg/mL (≈ 20.3 µM) | 4 | 8 µg/mL | 8 µg/mL | 8 µg/mL | Ratio [9]: 2; Ratio [10]: 4; Ratio [11]: 2; Activity [12]: Non-Toxic; selectivity ratio [13]: 4.2; selectivity ratio [14]: 4.2; Activity [15]: Active; Activity [16]: Active; Ratio [17]: 4; Activity [18]: Active; Ratio [19]: 2; MHC [20]: 25 µg/mL; selectivity ratio [21]: 4.2; selectivity ratio [22]: 4.2; Activity [23]: Non-Toxic; inhibition [24]: Active; Ratio [25]: 2; Ratio [26]: 2
Cc1onc(-c2ccccc2)c1C(=O)N[C@@H]1C(=O)N2[C@@H]1SC(C)(C)[C@@H]2C(=O)O [OXACILLIN] |  |  |  |  |  | 512 µg/mL | 256 µg/mL | 256 µg/mL | 

Now from value to molecule, other results behind:

MIC [1] | MIC [2] | MIC [3] | MIC [4] | SMILES | Ratio [5] | MIC [6] | MIC [7] | MIC [8] | also measured
32 µg/mL (≈ 49.5 µM) | 4 µg/mL (≈ 6.19 µM) | 16 µg/mL (≈ 24.8 µM) | > 64 µg/mL | Cc1cn([C@H]2C[C@H](NC(=O)CCCc3ccccc3)[C@@H](CNC(=O)CCCc3ccccc3)O2)c(=O)nc1N(CCCN)CCCN |  |  |  |  | 
> 64 µg/mL | 64 µg/mL (≈ 112 µM) | 64 µg/mL (≈ 112 µM) | > 64 µg/mL | Cc1cn([C@H]2C[C@H](NC(=O)C3CCCCC3)[C@@H](CNC(=O)C3CCCCC3)O2)c(=O)nc1N(CCCN)CCCN |  |  |  |  | 
16 µg/mL (≈ 23.2 µM) | 8 µg/mL (≈ 11.6 µM) | 4 µg/mL (≈ 5.8 µM) | 64 µg/mL (≈ 92.8 µM) | Cc1cn([C@H]2C[C@H](NC(=O)Cc3cccc4ccccc34)[C@@H](CNC(=O)Cc3cccc4ccccc34)O2)c(=O)nc1N(CCCN)CCCN | 2 |  |  |  | Ratio [10]: 2; Ratio [17]: 2; Ratio [27]: 4
